Laboratory results taken from patent US20210308034A1, “PREBIOTIC COMPOSITIONS AND METHODS FOR MAINTAINING A HEALTHY SKIN MICROBIOTA” (KIMBERLY-CLARK WORLDWIDE, INC., priority 2018, published 2021).
Where a SMILES comes first, the peptide text is derived from it.

Tests used:
Assay type in all cases: cell-based
[1] = system: Corynebacterium jeikum (ATCC 33033); assay: Carbohydrate Screening Test Method (Biolog phenotype microarray), Bacteria Code B; conditions: for Carbohydrate Screening Results, Bacteria Code B: Commensal, carbon microarray plate, OD 600 nm, 36 hr, 33° C., positive = more than 0.05 OD units above zero, blank cell = not utilized
Protocol: The screening process was set up to determine which carbohydrate sources promoted commensal and/or pathogenic bacteria as well as to obtain individual and combinations of carbohydrate sources that could serve as microbiota balancing agents that can support or maintain the healthy proportions of commensal skin bacteria of Corynebacterium, Staphylococcus, and Micrococcus. The screening was conducted utilizing Biolog phenotype microarray plates (Hayward, Calif.). Table 1 provides a coded list of the commensal and pathogenic skin bacteria that the carbohydrates were screened against.
(§1) The Bacteria Codes B, D, E, I, and J are commensal bacteria and are shaded in Table 2 for references purposes. The bacteria codes were each placed in a carbon microarray plate and screened through the Carbohydrate Screening Test Method, as described in the Test Methods section herein. If a particular bacteria code utilized a specific carbohydrate source as described in the Carbohydrate Screening Test Method, then the corresponding cell in Table 2 was marked with a Y (short for “Yes”).
To do so, the respective microarray data for the 79 carbohydrate sources was run through the GrowthRates 2.1 program to obtain growth parameters, such as growth rates and maximum yield data as described by the Belingham Research Institute, Hall, B. G., H. Acar and M. Barlow. […] Mol. Biol. Evol. […] The max yield parameters generated were utilized to calculate ratios of tested commensal bacteria. The ratios calculated were compared back to the desired ratios identified above (Corynebacterium to Staphylococcus of 1.3, Corynebacterium to Micrococcus of 1.4, and Staphylococcus to Micrococcus of 1.1).
(§2) As an example of this methodology used to calculate the commensal bacteria ratios and the difference between the calculated ratios and the desired ratios, an example code from Table 3 will be described. […] The max yields were then used to calculate ratios the bacteria would reach in a co-culture.
A passage of the culture was made using a sterile swab and streaked onto two M9*2 agar plates to prepare the incubated culture for the phenotype microarray pate according to Table 4.
(§3) All cultures were harvested and washed before inoculation into the carbon microarray plate (BiOLOG, Hayward Calif.), with Biolog Plates PM1 and PM2 each having a source definition of Carbon. The bacteria on the M9*2 agar was suspended via agitation with an inoculating loop in 1 mL of M9*1 media for collection in a 1.7 mL micro centrifuge tube, as noted in Table 4.

[2] = system: Micrococcus luteus (SK58); assay: Carbohydrate Screening Test Method (Biolog phenotype microarray), Bacteria Code E; conditions: for Carbohydrate Screening Results, Bacteria Code E: Commensal, carbon microarray plate, OD 600 nm, 36 hr, 33° C., positive = more than 0.05 OD units above zero, blank cell = not utilized
Source text: (§4) After creating desired ratios of various commensal skin bacteria in a healthy skin microbiome, 188 different carbohydrate sources were screened as the next step in determining potential prospects for skin microbiota balancing agents. The screening process was set up to determine which carbohydrate sources promoted commensal and/or pathogenic bacteria as well as to obtain individual and combinations of carbohydrate sources that could serve as microbiota balancing agents that can support or maintain the healthy proportions of commensal skin bacteria of Corynebacterium, Staphylococcus, and Micrococcus. The screening was conducted utilizing Biolog phenotype microarray plates (Hayward, Calif.). Table 1 provides a coded list of the commensal and pathogenic skin bacteria that the carbohydrates were screened against.
as §1
To do so, the respective microarray data for the 79 carbohydrate sources was run through the GrowthRates 2.1 program to obtain growth parameters, such as growth rates and maximum yield data as described by the Belingham Research Institute, Hall, B. G., H. Acar and M. Barlow. 2014 Growth Rates Made Easy. Mol. Biol. Evol. 31:232-238 doi:10.1093/molbev/mst197. The max yield parameters generated were utilized to calculate ratios of tested commensal bacteria. The ratios calculated were compared back to the desired ratios identified above (Corynebacterium to Staphylococcus of 1.3, Corynebacterium to Micrococcus of 1.4, and Staphylococcus to Micrococcus of 1.1).
as §2

[3] = system: Klebsiella pneumoniae (ATCC BAA-2146); conditions: Pathogenic; carbon microarray plate, OD 600 nm, 36 hr, 33° C.; positive = more than 0.05 OD units above zero; blank cell = not utilized
Source text: as §4
Table 2 provides the results of screening various carbohydrate sources against the commensal and pathogenic bacteria codes listed in Table 1. The Bacteria Codes B, D, E, I, and J are commensal bacteria and are shaded in Table 2 for references purposes. The bacteria codes were each placed in a carbon microarray plate and screened through the Carbohydrate Screening Test Method, as described in the Test Methods section herein. If a particular bacteria code utilized a specific carbohydrate source as described in the Carbohydrate Screening Test Method, then the corresponding cell in Table 2 was marked with a Y (short for “Yes”). […] Many of the carbohydrate sources were utilized by both commensal and pathogenic bacteria, and as such, would not provide an advantage for selective growth of the commensal bacteria. However, some of the carbohydrate sources were only used by commensal bacteria and were identified for further testing as described herein.
The study employed 10 representative skin bacteria; Staphylococcus epidermidis ATCC 14990, Staphylococcus epidermidis M23864:W2, Staphylococcus aureus ATCC 6538, Staphylococcus aureus ATCC 25904 (Newman), Pseudomonas aeruginosa ATCC 9027, Micrococcus luteus ATCC […], Micrococcus luteus SK58, Klebsiella pneumoniae ATCC BAA-2146, Corynebacterium amycolatum SK46, and Corynebacterium minutissimum ATCC 23348. Cultures were started from freezer bead stocks by placing a single bead into 20 mL of tryptic soy broth (TSB) for all organisms except C. amycolatum SK46 and C. minutissimum ATCC 23348, which were placed into brain heart infusion (BHI) broth. Cultures were grown for about 24 hr at 37° C. except M. luteus ATCC 49732 and M. luteus SK58, which were grown at 30° C. A passage of the culture was made using a sterile swab and streaked onto two M9*2 agar plates to prepare the incubated culture for the phenotype microarray pate according to Table 4. Plates were incubated for about 24 hr at 37° C. except for M. luteus ATCC 49732 and M. luteus SK58, which were incubated at 30° C. for 24 hr.
as §3, with “4. The bacteria was suspended again in M9*1 media, agitated, and collected into the same 1.7 mL microcentrifuge tube used in the previous step. The tube was centrifuged for 5 minutes at 4,000×G, supernatant decanted, the pellet was resuspended in 1 mL of M9*1 media, and vortex. This washing process was repeated for a total of 4 times.” for “4.”
A tenfold dilution in M9*1 media was performed using 1 mL of the washed bacterial culture. Of the tenfold dilution 200 μL was placed in an untreated 96-well plate (Falcon, Pasadena Tx.) for an initial optical density (OD) reading at a wavelength of 600 nm. The OD was used to correlate to colony forming units (CFU) per milliliter by using linear regression lines for each organism. […]

Molecule: CC(O)CO (stereo not drawn) [1,2-Propanediol]
- Carbohydrate Screening Results, Bacteria Code B [1]: Y
- Carbohydrate Screening Results, Bacteria Code E [2]: Y

Molecule: O=C[C@@H](O)[C@H](O[C@@H]1O[C@H](CO)[C@H](O)[C@H](O)[C@H]1O)[C@H](O)CO [3-0-β-D-Galacto-pyranosyl-D-Arabinose]
- Carbohydrate Screening Results, Bacteria Code C [3]: Y

Molecule: CC(=O)CC(=O)O [Acetoacetic Acid]
- Carbohydrate Screening Results, Bacteria Code B [1]: Y
- Carbohydrate Screening Results, Bacteria Code E [2]: Y

Molecule: Nc1ncnc2c1ncn2[C@@H]1O[C@H](CO)[C@@H](O)[C@H]1O [Adenosine]
- Carbohydrate Screening Results, Bacteria Code B [1]: Y
- Carbohydrate Screening Results, Bacteria Code E [2]: Y

Molecule: OC[C@H]1O[C@@H](Oc2ccc(O)cc2)[C@H](O)[C@@H](O)[C@@H]1O [Arbutin]
- Carbohydrate Screening Results, Bacteria Code C [3]: Y

Molecule: O=C(O)CC(Br)C(=O)O (stereo not drawn) [Bromo Succinic Acid]
- Carbohydrate Screening Results, Bacteria Code B [1]: Y

Molecule: O=C(O)CC(O)(CC(=O)O)C(=O)O [Citric Acid]
- Carbohydrate Screening Results, Bacteria Code B [1]: Y

Molecule: C[C@@H](N)C(=O)O [D-Alanine]
- max yield ([1]; C. jeikeium, GrowthRates 2.1 on microarray data): 0.157
- Carbohydrate Screening Results, Bacteria Code B [1]: Y
- Carbohydrate Screening Results, Bacteria Code E [2]: Y
- max yield ([2]; M. luteus SK58, GrowthRates 2.1 on microarray data): 0.098

Molecule: N[C@H](CC(=O)O)C(=O)O [D-Aspartic Acid]
- Carbohydrate Screening Results, Bacteria Code B [1]: Y
- Carbohydrate Screening Results, Bacteria Code E [2]: Y

Molecule: N[C@@H](C(=O)O)[C@@H](O)[C@H](O)[C@H](O)CO [D-Glucosaminic Acid]
- Carbohydrate Screening Results, Bacteria Code E [2]: Y

Molecule: COC(=O)[C@@H](C)O [D-Lactic Acid Methyl Ester]
- Carbohydrate Screening Results, Bacteria Code C [3]: Y

Molecule: OC[C@H]1O[C@H](OC[C@H]2O[C@H](O[C@]3(CO)O[C@H](CO)[C@@H](O)[C@@H]3O)[C@H](O)[C@@H](O)[C@@H]2O)[C@H](O)[C@@H](O)[C@H]1O [D-Raffinose]
- Carbohydrate Screening Results, Bacteria Code C [3]: Y

Molecule: C[C@H](O)[C@@H](N)C(=O)O [D-Threonine]
- Carbohydrate Screening Results, Bacteria Code B [1]: Y
- Carbohydrate Screening Results, Bacteria Code E [2]: Y

Molecule: OC[C@@H](O)[C@H](O)[C@H](O)[C@@H](O)CO [Dulcitol]
- Carbohydrate Screening Results, Bacteria Code B [1]: Y
- Carbohydrate Screening Results, Bacteria Code E [2]: Y

Molecule: O=CO [Formic Acid]
- Carbohydrate Screening Results, Bacteria Code B [1]: Y
- Carbohydrate Screening Results, Bacteria Code E [2]: Y

Molecule: O=C(O)/C=C/C(=O)O [Fumaric Acid]
- Carbohydrate Screening Results, Bacteria Code B [1]: Y
- Carbohydrate Screening Results, Bacteria Code E [2]: Y

Molecule: NC(=O)[C@@H](O)[C@@H](O)[C@H](O)[C@@H](O)C=O [Glucuronamide]
- Carbohydrate Screening Results, Bacteria Code B [1]: Y
- Carbohydrate Screening Results, Bacteria Code E [2]: Y

Molecule: O=C(O)CO [Glycolic Acid]
- Carbohydrate Screening Results, Bacteria Code B [1]: Y
- Carbohydrate Screening Results, Bacteria Code E [2]: Y

Molecule: NCC(=O)N[C@@H](CC(=O)O)C(=O)O [Glycyl-L-Aspartic Acid] (H-Gly-Asp-OH)
- Carbohydrate Screening Results, Bacteria Code E [2]: Y

Molecule: NCC(=O)N[C@@H](CCC(=O)O)C(=O)O [Glycyl-L-Glutamic Acid] (H-Gly-Glu-OH)
- Carbohydrate Screening Results, Bacteria Code E [2]: Y

Molecule: O=CC(=O)O [Glyoxylic Acid]
- Carbohydrate Screening Results, Bacteria Code B [1]: Y

Molecule: C[C@H](N)C(=O)O [L-Alanine]
- Carbohydrate Screening Results, Bacteria Code E [2]: Y

Molecule: C[C@H](N)C(=O)NCC(=O)O [L-Alanyl-Glycine] (H-Ala-Gly-OH)
- Carbohydrate Screening Results, Bacteria Code B [1]: Y
- Carbohydrate Screening Results, Bacteria Code E [2]: Y

Molecule: N[C@@H](CC(=O)O)C(=O)O [L-Aspartic Acid]
- Carbohydrate Screening Results, Bacteria Code C [3]: Y
- Carbohydrate Screening Results, Bacteria Code B [1]: Y

Molecule: O=C1O[C@H]([C@@H](O)CO)[C@@H](O)[C@@H]1O [L-Galactonic Acid-γ-Lactone]
- Carbohydrate Screening Results, Bacteria Code C [3]: Y
- Carbohydrate Screening Results, Bacteria Code B [1]: Y

Molecule: O=C(O)C[C@H](O)C(=O)O [L-Malic Acid]
- Carbohydrate Screening Results, Bacteria Code B [1]: Y
- Carbohydrate Screening Results, Bacteria Code E [2]: Y

Molecule: O=C(O)[C@@H]1CCCN1 [L-Proline]
- Carbohydrate Screening Results, Bacteria Code B [1]: Y
- Carbohydrate Screening Results, Bacteria Code E [2]: Y

Molecule: C[C@@H](O)[C@H](N)C(=O)O [L-Threonine]
- Carbohydrate Screening Results, Bacteria Code B [1]: Y
- Carbohydrate Screening Results, Bacteria Code E [2]: Y

Molecule: O=C(O)[C@H](O)[C@@H](O)[C@H](O)[C@H](O)CO[C@H]1O[C@H](CO)[C@H](O)[C@H](O)[C@H]1O [Melibionic Acid]
- Carbohydrate Screening Results, Bacteria Code C [3]: Y

Molecule: O=C(O)[C@@H](O)[C@H](O)[C@H](O)[C@@H](O)C(=O)O [Mucic Acid]
- Carbohydrate Screening Results, Bacteria Code B [1]: Y

Molecule: CC(=O)N[C@H]1[C@@H](O)[C@H](O)[C@@H](CO)O[C@H]1O [N-Acetyl-β-D-Mannosamine]
- Carbohydrate Screening Results, Bacteria Code B [1]: Y
- Carbohydrate Screening Results, Bacteria Code E [2]: Y

Molecule: NCCc1ccccc1 [Phenylethyl-amine]
- Carbohydrate Screening Results, Bacteria Code B [1]: Y

Molecule: CCC(=O)O [Propionic Acid]
- Carbohydrate Screening Results, Bacteria Code B [1]: Y
- Carbohydrate Screening Results, Bacteria Code E [2]: Y

Molecule: O=C(O)CC(CC(=O)O)C(=O)O [Tricarballylic Acid]
- Carbohydrate Screening Results, Bacteria Code E [2]: Y

Molecule: O=C(O)Cc1cccc(O)c1 [m-Hydroxy Phenyl Acetic Acid]
- Carbohydrate Screening Results, Bacteria Code C [3]: Y

Molecule: O=C(O)C(O)C(O)C(=O)O (stereo not drawn) [m-Tartaric Acid]
- Carbohydrate Screening Results, Bacteria Code B [1]: Y

Molecule: CCC(O)C(=O)O (stereo not drawn) [α-Hydroxy Butyric Acid]
- Carbohydrate Screening Results, Bacteria Code B [1]: Y

Molecule: O=C1CCC(C(=O)O)O1 (stereo not drawn) [α-Hydroxy Glutaric Acid-γ-Lactone]
- Carbohydrate Screening Results, Bacteria Code B [1]: Y
- Carbohydrate Screening Results, Bacteria Code E [2]: Y

Molecule: CCC(=O)C(=O)O [α-Keto-Butyric Acid]
- Carbohydrate Screening Results, Bacteria Code B [1]: Y

Molecule: O=C(O)CCC(=O)C(=O)O [α-Keto-Glutaric Acid]
- Carbohydrate Screening Results, Bacteria Code B [1]: Y

Molecule: Tween 40
- Carbohydrate Screening Results, Bacteria Code B [1]: Y
